ChEMBL document CHEMBL3885861, “Open TG-GATES”

Species: Rattus norvegicus
Test: Open TG-GATES - Regimen: Daily Repeat
Format: toxicity, organism-based, Sprague-Dawley
Set-up: regimen Daily Repeat, gender Male, age 6 weeks
Conditions: in vivo, po, route gavage; for Bas / Eos / Fbg / Ht / Lym / MCH / MCHC / MCV / Mono / Neu / PT / Plat / RBC / Ret / WBC / APTT: tissue Blood; for KIDNEY_L / KIDNEY_R / KIDNEY_TOTAL: tissue Kidney; for ALP / ALT / AST / CRE / Ca / Cl / DBIL / GLC / IP / K / LDH / RALB / TBIL / TC / TG / TP / gamma-GTP: tissue Plasma
[1] = 0 mg/kg, 72 h, dose level Control, time 3 day
[2] = 0 mg/kg, […], dose level Control, time 7 day
[3] = 0 mg/kg, […], dose level Control, time 14 day
[4] = 0 mg/kg, […], dose level Control, time 28 day
[5] = 10 mg/kg, 72 h, dose level Low, time 3 day
[6] = 10 mg/kg, […], dose level Low, time 7 day
[7] = 10 mg/kg, […], dose level Low, time 14 day
[8] = 10 mg/kg, […], dose level Low, time 28 day

**Q.** Which results are given for Cn1c(=O)c2c(ncn2C)n(C)c1=O [CAFFEINE]?
**A.** TERMINAL_BW [1]: 229.3 g; Bas [1]: 0%; Eos [1]: 0.6%; Fbg [1]: 311 mg/dL; Ht [1]: 39.9%; Lym [1]: 81.2%; MCH [1]: 21.1 pg; MCHC [1]: 33.1%; MCV [1]: 63.7 fL; Mono [1]: 2%; Neu [1]: 15.6%; PT [1]: 15.7 s; Plat [1]: 113.5 x10_4/uL; RBC [1]: 627 x10_4/ul; Ret [1]: 6.4%; WBC [1]: 79.7 x10_2/uL; KIDNEY_L [1]: 1 g; KIDNEY_R [1]: 1 g; KIDNEY_TOTAL [1]: 2 g; ALP [1]: 1435.4 IU/L; ALT [1]: 51.2 IU/L; AST [1]: 77 IU/L; CRE [1]: 0.2 mg/dL; Ca [1]: 10.9 mg/dL; Cl [1]: 108.2 meq/L; DBIL [1]: 0 mg/dL; GLC [1]: 187.2 mg/dL; IP [1]: 7.9 mg/dL; K [1]: 4.1 meq/L; LDH [1]: 159 IU/L; RALB [1]: 3 g/dL; TBIL [1]: 0.004 mg/dL; TC [1]: 69.2 mg/dL; TG [1]: 83.4 mg/dL; TP [1]: 5.6 g/dL; gamma-GTP [1]: 1.4 IU/L; TERMINAL_BW [2]: 259.6 g; TERMINAL_BW [3]: 312 g; TERMINAL_BW [4]: 388.1 g; APTT [2]: 22.5 s; Bas [2]: 0%; Eos [2]: 0.8%; Fbg [2]: 342.6 mg/dL; Ht [2]: 40.7%; Lym [2]: 79%; MCH [2]: 21.2 pg; MCHC [2]: 33.6%; MCV [2]: 63.2 fL; Mono [2]: 1.8%; Neu [2]: 17.4%; PT [2]: 15.4 s; Plat [2]: 116.2 x10_4/uL; RBC [2]: 644.8 x10_4/ul; Ret [2]: 6%; WBC [2]: 120.4 x10_2/uL; APTT [3]: 22.6 s; Bas [3]: 0%; Eos [3]: 1%; Fbg [3]: 311.4 mg/dL; Ht [3]: 41.1%; Lym [3]: 84.2%; MCHC [3]: 34.2%; MCV [3]: 59.8 fL; Mono [3]: 2.4%; Neu [3]: 11.4%; PT [3]: 15.5 s; Plat [3]: 117.4 x10_4/uL; RBC [3]: 688 x10_4/ul; Ret [3]: 4.3%; WBC [3]: 117.6 x10_2/uL; Bas [4]: 0%; Eos [4]: 1.2%; Fbg [4]: 317 mg/dL; Ht [4]: 43.6%; Lym [4]: 81%; MCH [4]: 19.4 pg; MCHC [4]: 34.6%; MCV [4]: 56.1 fL; Mono [4]: 1.6%; PT [4]: 15.7 s; Plat [4]: 102.1 x10_4/uL; RBC [4]: 778.2 x10_4/ul; Ret [4]: 2.6%; WBC [4]: 103.3 x10_2/uL; KIDNEY_L [2]: 1.1 g; KIDNEY_R [2]: 1.1 g; KIDNEY_TOTAL [2]: 2.3 g; KIDNEY_L [3]: 1.2 g; KIDNEY_R [3]: 1.2 g; KIDNEY_TOTAL [3]: 2.4 g; KIDNEY_L [4]: 1.4 g; KIDNEY_R [4]: 1.5 g; KIDNEY_TOTAL [4]: 2.9 g; ALP [2]: 1993.2 IU/L; ALT [2]: 46 IU/L; AST [2]: 70.6 IU/L; CRE [2]: 0.1 mg/dL; Ca [2]: 10.5 mg/dL; Cl [2]: 106 meq/L; DBIL [2]: 0 mg/dL; GLC [2]: 197.8 mg/dL; IP [2]: 7.7 mg/dL; K [2]: 4.7 meq/L; LDH [2]: 185.6 IU/L; RALB [2]: 3 g/dL; TBIL [2]: 0 mg/dL; TC [2]: 76.6 mg/dL; TG [2]: 118.6 mg/dL; TP [2]: 5.5 g/dL; gamma-GTP [2]: 1.8 IU/L; ALP [3]: 1572.4 IU/L; ALT [3]: 40.8 IU/L; AST [3]: 68.4 IU/L; CRE [3]: 0.2 mg/dL; Ca [3]: 10.5 mg/dL; Cl [3]: 104.6 meq/L; DBIL [3]: 0 mg/dL; GLC [3]: 216 mg/dL; IP [3]: 7.5 mg/dL; K [3]: 4.5 meq/L; LDH [3]: 181 IU/L; RALB [3]: 3 g/dL; TBIL [3]: 0 mg/dL; TG [3]: 150.2 mg/dL; TP [3]: 5.8 g/dL; gamma-GTP [3]: 2.4 IU/L; ALP [4]: 1038 IU/L; ALT [4]: 43.6 IU/L; AST [4]: 66.6 IU/L; CRE [4]: 0.2 mg/dL; Ca [4]: 10.4 mg/dL; Cl [4]: 105 meq/L; DBIL [4]: 0 mg/dL; GLC [4]: 197.4 mg/dL; IP [4]: 6.6 mg/dL; K [4]: 4.1 meq/L; LDH [4]: 146 IU/L; RALB [4]: 3.1 g/dL; TBIL [4]: 0.004 mg/dL; TC [4]: 71 mg/dL; TG [4]: 138.8 mg/dL; TP [4]: 6.1 g/dL; gamma-GTP [4]: 2.2 IU/L; TERMINAL_BW [5]: 226.8 g; APTT [5]: 21.4 s; Bas [5]: 0%; Eos [5]: 1%; Fbg [5]: 307.2 mg/dL; Ht [5]: 38.9%; Lym [5]: 80.2%; MCH [5]: 20.9 pg; MCHC [5]: 33.2%; MCV [5]: 62.9 fL; Mono [5]: 1.8%; Neu [5]: 16.4%; PT [5]: 15.5 s; Plat [5]: 118.8 x10_4/uL; RBC [5]: 618.6 x10_4/ul; Ret [5]: 5.7%; WBC [5]: 73.5 x10_2/uL; KIDNEY_L [5]: 1 g; KIDNEY_R [5]: 1 g; KIDNEY_TOTAL [5]: 2 g; ALP [5]: 1442.2 IU/L; ALT [5]: 43.8 IU/L; AST [5]: 70.8 IU/L; CRE [5]: 0.2 mg/dL; Ca [5]: 10.8 mg/dL; Cl [5]: 107.6 meq/L; DBIL [5]: 0 mg/dL; GLC [5]: 183.2 mg/dL; IP [5]: 7.5 mg/dL; K [5]: 4.2 meq/L; LDH [5]: 154.6 IU/L; RALB [5]: 3 g/dL; TBIL [5]: 0.004 mg/dL; TC [5]: 75.8 mg/dL; TG [5]: 87.8 mg/dL; TP [5]: 5.6 g/dL; gamma-GTP [5]: 1.2 IU/L; TERMINAL_BW [6]: 259.9 g; TERMINAL_BW [7]: 300.9 g; TERMINAL_BW [8]: 396.8 g; APTT [6]: 22.8 s; Bas [6]: 0%; Eos [6]: 1%; Fbg [6]: 316 mg/dL; Ht [6]: 40.6%; Lym [6]: 79%; MCH [6]: 20.9 pg; MCHC [6]: 33.3%; MCV [6]: 62.7 fL; Mono [6]: 2%; Neu [6]: 16.8%; PT [6]: 15.3 s; Plat [6]: 112.2 x10_4/uL; RBC [6]: 648.4 x10_4/ul; Ret [6]: 6.1%; WBC [6]: 106.3 x10_2/uL; APTT [7]: 23.2 s; Bas [7]: 0%; Eos [7]: 0.8%; Fbg [7]: 306.2 mg/dL; Ht [7]: 41.1%; Lym [7]: 81.2%; MCH [7]: 20.1 pg; MCHC [7]: 34%; MCV [7]: 59.2 fL; Mono [7]: 1.4%; Neu [7]: 15.4%; PT [7]: 15.1 s; Plat [7]: 112.6 x10_4/uL; RBC [7]: 693.6 x10_4/ul; Ret [7]: 4.5%; WBC [7]: 105.4 x10_2/uL; APTT [8]: 25.8 s; Bas [8]: 0%; Eos [8]: 0.6%; Fbg [8]: 309.2 mg/dL; Ht [8]: 43.1%; Lym [8]: 84%; MCHC [8]: 34.5%; MCV [8]: 54.7 fL; Mono [8]: 1.6%; Plat [8]: 99.3 x10_4/uL; RBC [8]: 788.8 x10_4/ul; Ret [8]: 2.5%; WBC [8]: 105.2 x10_2/uL; KIDNEY_L [6]: 1.1 g; KIDNEY_R [6]: 1.1 g; KIDNEY_TOTAL [6]: 2.2 g; KIDNEY_L [7]: 1.2 g; KIDNEY_R [7]: 1.2 g; KIDNEY_TOTAL [7]: 2.5 g; KIDNEY_L [8]: 1.5 g; KIDNEY_R [8]: 1.5 g; KIDNEY_TOTAL [8]: 3 g; ALP [6]: 1552.6 IU/L; ALT [6]: 47.6 IU/L; AST [6]: 75.2 IU/L; CRE [6]: 0.2 mg/dL; Ca [6]: 10.5 mg/dL; Cl [6]: 106.4 meq/L; DBIL [6]: 0 mg/dL; GLC [6]: 192.8 mg/dL; IP [6]: 7.8 mg/dL; K [6]: 4.4 meq/L; LDH [6]: 179.4 IU/L; RALB [6]: 3 g/dL; TBIL [6]: 0.002 mg/dL; TC [6]: 73.4 mg/dL; TG [6]: 102.4 mg/dL; TP [6]: 5.5 g/dL; gamma-GTP [6]: 2.4 IU/L; ALP [7]: 1475.8 IU/L; AST [7]: 71.8 IU/L; CRE [7]: 0.2 mg/dL; Ca [7]: 10.6 mg/dL; Cl [7]: 105.8 meq/L; DBIL [7]: 0 mg/dL; GLC [7]: 194 mg/dL; IP [7]: 6.8 mg/dL; K [7]: 4.2 meq/L; LDH [7]: 160.2 IU/L; RALB [7]: 3 g/dL; TBIL [7]: 0.004 mg/dL; TC [7]: 68.4 mg/dL; TG [7]: 146.6 mg/dL; TP [7]: 5.8 g/dL; gamma-GTP [7]: 2.2 IU/L; ALP [8]: 1054 IU/L; ALT [8]: 43 IU/L; AST [8]: 66.2 IU/L; CRE [8]: 0.2 mg/dL; Ca [8]: 10.4 mg/dL; Cl [8]: 105.8 meq/L; DBIL [8]: 0 mg/dL; GLC [8]: 204.4 mg/dL; IP [8]: 6.7 mg/dL; K [8]: 4 meq/L; LDH [8]: 153 IU/L; RALB [8]: 3.2 g/dL; TBIL [8]: 0.004 mg/dL; TC [8]: 73.6 mg/dL; TG [8]: 147.6 mg/dL
